Values belong to the compound of their own block, whether it stands above or below them.
Experiments:
[1] = system: human lung cancer cells (A549); experiment: Nude mouse xenograft model of human lung cancer cells, intraperitoneal administration; format: in vivo; conditions: for tumor size compared to the control group: after day 19
Description: Anticancer activity against lung cancer according to the intraperitoneal administration of Tr-9 was confirmed through a nude mouse xenograft model of human lung cancer cells (A549). In Example 4, it was carried out using the same animal model and method as the oral administration, except that it was administered intraperitoneally.
(§1) Specific pathogen-free (SPF) nude mice of the BALB/C strain were used as the animal model. Animals were bred in the animal room of Daedeok Campus of Hannam University maintained at a temperature of 23±3° C., relative humidity of 55±15%, ventilation frequency of 10-20 times/hr, lighting time of 12 hours(lights on at 8 am and off at 8 pm) and illuminance of 150 to 300 Lux.
(§2) For cancer cell transplantation, all cells were collected and counted on the last day of culture, and the concentration of human lung cancer cell line A549 was adjusted to 5×10^6 cells/ml using PBS. The adjusted cell culture solution was injected subcutaneously into the auxiliary region between the right scapula and chest wall at 0.2 ml (1×10^6 cells/mouse) per mouse.
The Tr-9 was dissolved in sterile PBS and 1 mM Tr-9 200 µℓ was intraperitoneally administered per mouse once a day, and all animals were weighed immediately before the start of drug (Tr-9) administration and 10 times in total from day 2 to day 23 after cancer cell transplantation (Table 4).
(§3) In Table 4 above, data values are the mean ± standard deviation. After measuring the body weight, the animals were killed using CO2 gas, and the tumor was separated and the size was measured in 3 directions using a vernier caliper for each animal. Then, the change in tumor size was expressed as a calculated value of (length × width × height)/2 (Table 4).
(§4) Tumor size increase is (Δt)= Vt—Vo, wherein Vt is the value of measuring the tumor size by date, and Vo is the value of measuring the initial tumor size.

[2] = system: human lung cancer cells (A549); experiment: Nude mouse xenograft model of human lung cancer cells, oral administration; format: in vivo; design: Tumor size increase (Vt—V0): unit not given here; conditions: for tumor size compared to the control group: oral, after day 19
Description: as §1, with “Anticancer activity against lung cancer according to the oral administration of Tr-9 was confirmed through a nude mouse xenograft model of human lung cancer cells (A549). Specific” for “Specific”
as §2
The Tr-9 was dissolved in sterile PBS and 1 mM Tr-9 200 µℓ was orally administered per mouse once a day, and all animals were weighed immediately before the start of drug (Tr-9) administration and 10 times in total from day 2 to day 23 after cancer cell transplantation (Table 1).
as §3, with “1” for “4”, “2).” for “4).”
as §4

[3] = Change in mouse weight, HCT116 xenograft, intraperitoneal administration; format: in vivo, nude mouse; design: Change in mouse weight: unit not given here; conditions: intraperitoneal once a day; for difference in body weight according to the administration of the drugs: day 2 to day 21
Description: The Tr-9 was dissolved in sterile PBS and 1 mM Tr-9 200 µℓ was intraperitoneally administered per mouse once a day, and all animals were weighed immediately before the start of drug (Tr-9) administration and 9 times in total from day 2 to day 21 after cancer cell transplantation (Table 7).
as §3, with “7” for “4”, “8).” for “4).”

[4] = intraperitoneal once a day, Day 0, table title: Change in tumor size
[5] = intraperitoneal once a day, Day 2, table title: Change in tumor size
[6] = intraperitoneal once a day, Day 2, vs control
[7] = intraperitoneal once a day, Day 5, table title: Change in tumor size
[8] = intraperitoneal once a day, Day 5, vs control
[9] = intraperitoneal once a day, Day 7, table title: Change in tumor size
[10] = intraperitoneal once a day, Day 7, vs control
[11] = intraperitoneal once a day, Day 9, table title: Change in tumor size
[12] = intraperitoneal once a day, Day 9, vs control
[13] = intraperitoneal once a day, Day 12, table title: Change in tumor size
[14] = intraperitoneal once a day, Day 12, vs control
[15] = intraperitoneal once a day, Day 14, table title: Change in tumor size
[16] = intraperitoneal once a day, Day 14, vs control
[17] = intraperitoneal once a day, Day 16, table title: Change in tumor size
[18] = intraperitoneal once a day, Day 16, vs control
[19] = intraperitoneal once a day, Day 19, table title: Change in tumor size
[20] = intraperitoneal once a day, Day 19, vs control
[21] = intraperitoneal once a day, Day 21, table title: Change in tumor size
[22] = intraperitoneal once a day, Day 21, vs control
[23] = intraperitoneal once a day, Day 23
[24] = intraperitoneal once a day, Day 23, table title: Change in tumor size
[25] = intraperitoneal once a day, Day 23, vs control
[26] = oral once a day, Day 2, vs control
[27] = oral once a day, Day 5, vs control
[28] = oral once a day, Day 7, vs control
[29] = oral once a day, Day 9, vs control
[30] = oral once a day, Day 12, vs control
[31] = oral once a day, Day 14, vs control
[32] = oral once a day, Day 16, vs control
[33] = oral once a day, Day 19, vs control
[34] = oral once a day, Day 21, vs control
[35] = oral once a day, Day 23, vs control

Change in mouse weight ([3]; 0 Day after drug treatment): 100.0 ±0.0 | Change in mouse weight ([3]; 2 Days after drug treatment): 100.5 ±1.8 | Change in mouse weight ([3]; 5 Days after drug treatment): 101.4 ±2.7 | Change in mouse weight ([3]; 7 Days after drug treatment): 98.4 ±2.7 | Change in mouse weight ([3]; 9 Days after drug treatment): 98.4 ±2.8 | Change in mouse weight ([3]; 11 Days after drug treatment): 98.8 ±3.2 | Change in mouse weight ([3]; 14 Days after drug treatment): 98.2 ±4.3 | Change in mouse weight ([3]; 16 Days after drug treatment): 98.6 ±4.9 | Change in mouse weight ([3]; 18 Days after drug treatment): 100.0 ±5.3 | Change in mouse weight ([3]; 21 Days after drug treatment): 101.8 ±7.3
Compound: C/C=C(/C)C(=O)O[C@@H]1C[C@H](C)[C@H]2CC(=O)C(C)=C2C[C@@H]1C(C)(C)OC(C)=O [Torilin, torilin, reference compound]
Tumor size increase (Vt−V0) [1, 4]: 0.0±0.0 | Tumor size increase (Vt−V0) [1, 5]: 13.2±13.2 | Inhibition rate (tumor size increase) [1, 6]: 2.9% | Tumor size increase (Vt−V0) [1, 7]: 19.91±0.4 | Inhibition rate (tumor size increase) [1, 8]: 4.8% | Tumor size increase (Vt−V0) [1, 9]: 28.9±12.5 | Inhibition rate (tumor size increase) [1, 10]: 14.7% | Tumor size increase (Vt−V0) [1, 11]: 38.0±8.1 | Inhibition rate (tumor size increase) [1, 12]: 17.0% | Tumor size increase (Vt−V0) [1, 13]: 75.1±10.7 | Inhibition rate (tumor size increase) [1, 14]: 14.6% | Tumor size increase (Vt−V0) [1, 15]: 127.0±25.8 | Inhibition rate (tumor size increase) [1, 16]: 15.6% | Tumor size increase (Vt−V0) [1, 17]: 210.5±44.8 | Inhibition rate (tumor size increase) [1, 18]: 19.9% | Tumor size increase (Vt−V0) [1, 19]: 394.8±93.5 | Inhibition rate (tumor size increase) [1, 20]: 22.9% | Tumor size increase (Vt−V0) [1, 21]: 525.2±99.1 | Inhibition rate (tumor size increase) [1, 22]: 22.7% | Tumor weight at Day 23 [1, 23]: 0.97 ± 0.183 g | Tumor weight reduction rate compared to control group [1, 23]: 28.6% | Tumor size increase (Vt−V0) [1, 24]: 695.0±110.6 | Inhibition rate (tumor size increase) [1, 25]: 27.0% | tumor size compared to the control group ([1]; intraperitoneal): statistically significantly smaller | Tumor size increase (Vt—V0) ([2]; oral once a day, Day 0): 0.0±0.0 | Tumor size increase (Vt—V0) ([2]; oral once a day, Day 2): 11.4±11.7 | Inhibition rate (tumor size increase) [2, 26]: 5.8% | Tumor size increase (Vt—V0) ([2]; oral once a day, Day 5): 18.1±9.4 | Inhibition rate (tumor size increase) [2, 27]: 10.8% | Tumor size increase (Vt—V0) ([2]; oral once a day, Day 7): 28.6±3.0 | Inhibition rate (tumor size increase) [2, 28]: 11.7% | Tumor size increase (Vt—V0) ([2]; oral once a day, Day 9): 42.0±9.8 | Inhibition rate (tumor size increase) [2, 29]: 20.9% | Inhibition rate (tumor size increase) [2, 30]: 27.0% | Tumor size increase (Vt—V0) ([2]; oral once a day, Day 14): 134.6±37.6 | Inhibition rate (tumor size increase) [2, 31]: 26.0% | Tumor size increase (Vt—V0) ([2]; oral once a day, Day 16): 211.8±32.9 | Inhibition rate (tumor size increase) [2, 32]: 27.0% | Tumor size increase (Vt—V0) ([2]; oral once a day, Day 19): 362.2±64.2 | Inhibition rate (tumor size increase) [2, 33]: 31.5% | Tumor size increase (Vt—V0) ([2]; oral once a day, Day 21): 493.4±82.6 | Inhibition rate (tumor size increase) [2, 34]: 33.0% | Tumor size increase (Vt—V0) ([2]; oral once a day, Day 23): 646.9±108.8 | Tumor weight at Day 23 ([2]; oral once a day, Day 23): 0.745 ± 0.196 g | Tumor weight reduction rate compared to control group ([2]; oral once a day, Day 23): 29.5% | Inhibition rate (tumor size increase) [2, 35]: 34.1% | tumor size compared to the control group [2]: statistically significantly smaller | difference in body weight according to the administration of the drugs [3]: almost no difference in body weight

Change in mouse weight ([3]; 0 Day after drug treatment): 100.0 ±0.0 | Change in mouse weight ([3]; 2 Days after drug treatment): 99.7 ±1.7 | Change in mouse weight ([3]; 5 Days after drug treatment): 100.5 ±3.2 | Change in mouse weight ([3]; 7 Days after drug treatment): 99.9 ±4.1 | Change in mouse weight ([3]; 9 Days after drug treatment): 99.8 ±4.9 | Change in mouse weight ([3]; 11 Days after drug treatment): 98.6 ±3.5 | Change in mouse weight ([3]; 14 Days after drug treatment): 99.7 ±4.5 | Change in mouse weight ([3]; 16 Days after drug treatment): 98.5 ±6.0 | Change in mouse weight ([3]; 18 Days after drug treatment): 100.4 ±5.5 | Change in mouse weight ([3]; 21 Days after drug treatment): 102.4 ±7.0
Compound: CC(=O)OC(C)(C)C1CC2=C(C)C(=O)CC2C(C)CC1OC(=O)CC(C)C (centres unmarked) [Tr-9]
tumor size further reduced compared to the group intraperitoneally administered with the torilin ([1]; intraperitoneal): about 17% | Tumor size increase (Vt−V0) [1, 4]: 0.0±0.0 | Tumor size increase (Vt−V0) [1, 5]: 7.0±5.4 | Inhibition rate (tumor size increase) [1, 6]: 48.5% | Tumor size increase (Vt−V0) [1, 7]: 13.8±8.5 | Inhibition rate (tumor size increase) [1, 8]: 34.0% | Tumor size increase (Vt−V0) [1, 9]: 19.6±10.1 | Inhibition rate (tumor size increase) [1, 10]: 42.2% | Tumor size increase (Vt−V0) [1, 11]: 24.4±7.1 | Inhibition rate (tumor size increase) [1, 12]: 46.7% | Tumor size increase (Vt−V0) [1, 13]: 61.1±7.0 | Inhibition rate (tumor size increase) [1, 14]: 30.5% | Tumor size increase (Vt−V0) [1, 15]: 116.4±15.1 | Inhibition rate (tumor size increase) [1, 16]: 22.7% | Tumor size increase (Vt−V0) [1, 17]: 198.3±22.8 | Inhibition rate (tumor size increase) [1, 18]: 24.6% | Tumor size increase (Vt−V0) [1, 19]: 309.2±39.5 | Inhibition rate (tumor size increase) [1, 20]: 39.6% | Tumor size increase (Vt−V0) [1, 21]: 415.2±53.1 | Inhibition rate (tumor size increase) [1, 22]: 38.9% | Tumor weight at Day 23 [1, 23]: 0.641 ± 0.1 g | Tumor size increase (Vt−V0) [1, 24]: 531.8±46.5 | Inhibition rate (tumor size increase) [1, 25]: 44.2% | tumor size compared to the control group ([1]; intraperitoneal): statistically significantly smaller | Tumor size increase (Vt—V0) ([2]; oral once a day, Day 0): 0.0±0.0 | Tumor size increase (Vt—V0) ([2]; oral once a day, Day 2): 5.4±1.4 | Inhibition rate (tumor size increase) [2, 26]: 55.4% | Tumor size increase (Vt—V0) ([2]; oral once a day, Day 5): 13.9±6.1 | Inhibition rate (tumor size increase) [2, 27]: 31.5% | Tumor size increase (Vt—V0) ([2]; oral once a day, Day 7): 24.0±14.5 | Inhibition rate (tumor size increase) [2, 28]: 25.9% | Tumor size increase (Vt—V0) ([2]; oral once a day, Day 9): 36.5±12.5 | Inhibition rate (tumor size increase) [2, 29]: 31.3% | Tumor size increase (Vt—V0) ([2]; oral once a day, Day 12): 67.8±25.4 | Inhibition rate (tumor size increase) [2, 30]: 33.5% | Tumor size increase (Vt—V0) ([2]; oral once a day, Day 14): 119.9±37.5 | Inhibition rate (tumor size increase) [2, 31]: 34.1% | Tumor size increase (Vt—V0) ([2]; oral once a day, Day 16): 183.4±85.6 | Inhibition rate (tumor size increase) [2, 32]: 36.8% | Tumor size increase (Vt—V0) ([2]; oral once a day, Day 19): 322.8±71.3 | Inhibition rate (tumor size increase) [2, 33]: 39.0% | Tumor size increase (Vt—V0) ([2]; oral once a day, Day 21): 448.0±131.2 | Inhibition rate (tumor size increase) [2, 34]: 39.2% | Tumor size increase (Vt—V0) ([2]; oral once a day, Day 23): 575.0±159.7 | Tumor weight at Day 23 ([2]; oral once a day, Day 23): 0.676 ± 0.185 g | Inhibition rate (tumor size increase) [2, 35]: 41.4% | tumor size compared to the control group [2]: statistically significantly smaller | difference in body weight according to the administration of the drugs [3]: almost no difference in body weight

— patent US20230107983A1, “COMPOUND ISOLATED FROM TORILIDIS FRUCTUS, AND ANTICANCER PHARMACEUTICAL COMPOSITION CONTAINING SAME AS ACTIVE INGREDIENT” (PHARMA-GENE CO., LTD., priority 2020, published 2023)
